Laboratory results reported in PubChem BioAssay AID1963866 (Molecular Pharmacology Branch, DTP, NCI, 2024).

System: PDC KRAS tumor spheroids with HUVEC/MSC, viability
Assay: Anticancer human tumor 349418-098-R-PDC patient-derived lung adenocarcinoma cell line growth inhibition [KRAS2]
Conditions: for IC50: curve of first compound; for viability, T/C: stronger effect = lower value
Procedure, shortened: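 KRAS-mutant tumor cells were grown as spheroids with HUVEC endothelial cells and human MSCs as stroma. Targeted agents were tested alone and with KRAS pathway inhibitors. Doses started at or near clinical Cmax, or 10 microM, descending half-log.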

[1] = second compound 0.1 µM, first compound 0.01 µM
[2] = second compound 0.1 µM, first compound 0.0316 µM
[3] = second compound 0.1 µM, first compound 0.1 µM
[4] = second compound 0.1 µM, first compound 0.316 µM
[5] = second compound 0.1 µM, first compound 1 µM
[6] = second compound 0.1 µM, first compound 3.16 µM
[7] = second compound 0.316 µM, first compound 0.01 µM
[8] = second compound 0.316 µM, first compound 0.0316 µM
[9] = second compound 0.316 µM, first compound 0.1 µM
[10] = second compound 0.316 µM, first compound 0.316 µM
[11] = second compound 0.316 µM, first compound 1 µM
[12] = second compound 0.316 µM, first compound 3.16 µM
[13] = second compound 1 µM, first compound 0.01 µM
[14] = second compound 1 µM, first compound 0.0316 µM
[15] = second compound 1 µM, first compound 0.1 µM
[16] = second compound 1 µM, first compound 0.316 µM
[17] = second compound 1 µM, first compound 1 µM
[18] = second compound 1 µM, first compound 3.16 µM
[19] = second compound 3.16 µM, first compound 0.01 µM
[20] = second compound 3.16 µM, first compound 0.0316 µM
[21] = second compound 3.16 µM, first compound 0.1 µM
[22] = second compound 3.16 µM, first compound 0.316 µM
[23] = second compound 3.16 µM, first compound 1 µM
[24] = second compound 3.16 µM, first compound 3.16 µM
[25] = second compound 10 µM, first compound 0.01 µM
[26] = second compound 10 µM, first compound 0.0316 µM
[27] = second compound 10 µM, first compound 0.1 µM
[28] = second compound 0.1 µM, first compound 0.000316 µM
[29] = second compound 0.1 µM, first compound 0.001 µM
[30] = second compound 0.1 µM, first compound 0.00316 µM
[31] = second compound 0.316 µM, first compound 0.000316 µM
[32] = second compound 0.316 µM, first compound 0.001 µM
[33] = second compound 0.316 µM, first compound 0.00316 µM
[34] = second compound 1 µM, first compound 0.000316 µM
[35] = second compound 1 µM, first compound 0.001 µM
[36] = second compound 1 µM, first compound 0.00316 µM
[37] = second compound 3.16 µM, first compound 0.000316 µM
[38] = second compound 3.16 µM, first compound 0.001 µM
[39] = second compound 3.16 µM, first compound 0.00316 µM
[40] = second compound 10 µM, first compound 0.000316 µM
[41] = second compound 10 µM, first compound 0.001 µM
[42] = second compound 10 µM, first compound 0.00316 µM
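Note: spheroids exposed to compounds for seven days before readout.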

CC(=O)OC12COC1CC(O)C1(C)C(=O)C(O)C3=C(C)C(OC(=O)C(O)C(NC(=O)OC(C)(C)C)c4ccccc4)CC(O)(C(OC(=O)c4ccccc4)C21)C3(C)C (stereo not given) + CNCc1ccccc1-c1csc(C(C)Nc2nc(C)nc3cc(OC)c(OC)cc23)c1
IC50 (second compound 0.1 µM): < 10 nM
IC50 (second compound 0.316 µM): < 10 nM
IC50 (second compound 1 µM): < 10 nM
IC50 (second compound 3.16 µM): < 10 nM
IC50 (second compound 10 µM): < 10 nM
viability, T/C [1]: 13.4%
viability, T/C [2]: 14.8%
viability, T/C [3]: 18.9%
viability, T/C [4]: 17.3%
viability, T/C [5]: 22%
viability, T/C [6]: 24.9%
viability, T/C [7]: 10.7%
viability, T/C [8]: 13.9%
viability, T/C [9]: 15.6%
viability, T/C [10]: 17.8%
viability, T/C [11]: 21%
viability, T/C [12]: 21.6%
viability, T/C [13]: 11%
viability, T/C [14]: 15.3%
viability, T/C [15]: 15%
viability, T/C [16]: 21.2%
viability, T/C [17]: 23.8%
viability, T/C [18]: 24.2%
viability, T/C [19]: 8.03%
viability, T/C [20]: 0.13%
viability, T/C [21]: 0.09%
viability, T/C [22]: 0.15%
viability, T/C [23]: 0.1%
viability, T/C [24]: 23.6%
viability, T/C [25]: 0.19%
viability, T/C [26]: 0.12%
viability, T/C [27]: 0.12%
viability, T/C (second compound 10 µM, first compound 0.316 µM): 0.17%
viability, T/C (second compound 10 µM, first compound 1 µM): 22.6%
viability, T/C (second compound 10 µM, first compound 3.16 µM): 0.21%

O=C(c1cc(Cc2n[nH]c(=O)c3ccccc23)ccc1F)N1CCN(C(=O)C2CC2)CC1 + C=CC(=O)N1CCN(c2nc(OCC3CCCN3C)nc3c2CCN(c2cccc4cccc(C)c24)C3)CC1CC#N
IC50 (second compound 0.0316 µM): 189 nM
IC50 (second compound 0.1 µM): 168 nM
IC50 (second compound 0.316 µM): 1190 nM
IC50 (second compound 1 µM): 353 nM
IC50 (second compound 3.16 µM): < 31.6 nM
viability, T/C (second compound 0.0316 µM, first compound 0.0316 µM): 86.9%
viability, T/C (second compound 0.0316 µM, first compound 0.1 µM): 75.7%
viability, T/C (second compound 0.0316 µM, first compound 0.316 µM): 29.1%
viability, T/C (second compound 0.0316 µM, first compound 1 µM): 21.3%
viability, T/C (second compound 0.0316 µM, first compound 3.16 µM): 17.5%
viability, T/C (second compound 0.0316 µM, first compound 10 µM): 15.6%
viability, T/C [2]: 81.2%
viability, T/C [3]: 50.7%
viability, T/C [4]: 50.7%
viability, T/C [5]: 24.5%
viability, T/C [6]: 20.9%
viability, T/C (second compound 0.1 µM, first compound 10 µM): 17.5%
viability, T/C [8]: 91.6%
viability, T/C [9]: 88%
viability, T/C [10]: 68.2%
viability, T/C [11]: 62.1%
viability, T/C [12]: 23.1%
viability, T/C (second compound 0.316 µM, first compound 10 µM): 18.9%
viability, T/C [14]: 51.9%
viability, T/C [15]: 55.5%
viability, T/C [16]: 52.5%
viability, T/C [17]: 34.6%
viability, T/C [18]: 26.7%
viability, T/C (second compound 1 µM, first compound 10 µM): 20.6%
viability, T/C [20]: 0.11%
viability, T/C [21]: 0.12%
viability, T/C [22]: 0.11%
viability, T/C [23]: 0.11%
viability, T/C [24]: 0.12%
viability, T/C (second compound 3.16 µM, first compound 10 µM): 1.16%

CC(=O)Nc1cccc(-n2c(=O)n(C3CC3)c(=O)c3c(Nc4ccc(I)cc4F)n(C)c(=O)c(C)c32)c1 + CC1OCC2(CCN(c3cnc(Sc4ccnc(N)c4Cl)c(N)n3)CC2)C1N
IC50 (second compound 0.1 µM): < 0.1 nM
IC50 (second compound 0.316 µM): < 0.1 nM
IC50 (second compound 1 µM): < 0.1 nM
IC50 (second compound 3.16 µM): < 0.1 nM
IC50 (second compound 10 µM): < 0.1 nM
viability, T/C (second compound 0.1 µM, first compound 0.0001 µM): 25%
viability, T/C [28]: 10.6%
viability, T/C [29]: 8.26%
viability, T/C [30]: 7.14%
viability, T/C [1]: 6.71%
viability, T/C [2]: 4.89%
viability, T/C (second compound 0.316 µM, first compound 0.0001 µM): 13.9%
viability, T/C [31]: 9.13%
viability, T/C [32]: 6.31%
viability, T/C [33]: 6.44%
viability, T/C [7]: 5.73%
viability, T/C [8]: 4.97%
viability, T/C (second compound 1 µM, first compound 0.0001 µM): 12.5%
viability, T/C [34]: 6.75%
viability, T/C [35]: 5.3%
viability, T/C [36]: 5.39%
viability, T/C [13]: 5.41%
viability, T/C [14]: 4.31%
viability, T/C (second compound 3.16 µM, first compound 0.0001 µM): 16.2%
viability, T/C [37]: 6.1%
viability, T/C [38]: 5.56%
viability, T/C [39]: 4.05%
viability, T/C [19]: 3.76%
viability, T/C [20]: 3.53%
viability, T/C (second compound 10 µM, first compound 0.0001 µM): 18.9%
viability, T/C [40]: 6.01%
viability, T/C [41]: 3.71%
viability, T/C [42]: 3.71%
viability, T/C [25]: 3.6%
viability, T/C [26]: 3.62%

Cn1ncnc1[C@H]1c2n[nH]c(=O)c3cc(F)cc(c23)N[C@@H]1c1ccc(F)cc1 + COc1cc2nc(C)nc(NC(C)c3cc(N)cc(C(F)(F)F)c3)c2cc1OC1CCOC1
IC50 (second compound 0.1 µM): > 100 nM
IC50 (second compound 0.316 µM): > 100 nM
IC50 (second compound 1 µM): > 100 nM
IC50 (second compound 3.16 µM): > 100 nM
IC50 (second compound 10 µM): < 0.316 nM
viability, T/C [28]: 103%
viability, T/C [29]: 99.9%
viability, T/C [30]: 100%
viability, T/C [1]: 95.8%
viability, T/C [2]: 91.6%
viability, T/C [3]: 82.4%
viability, T/C [31]: 97%
viability, T/C [32]: 92.7%
viability, T/C [33]: 97.2%
viability, T/C [7]: 89.5%
viability, T/C [8]: 88.3%
viability, T/C [9]: 81.1%
viability, T/C [34]: 97.3%
viability, T/C [35]: 97%
viability, T/C [36]: 93.9%
viability, T/C [13]: 87.5%
viability, T/C [14]: 83.4%
viability, T/C [15]: 77.7%
viability, T/C [37]: 92.5%
viability, T/C [38]: 88.6%
viability, T/C [39]: 86.3%
viability, T/C [19]: 85.2%
viability, T/C [20]: 74.1%
viability, T/C [21]: 78.1%
viability, T/C [40]: 36.2%
viability, T/C [41]: 20.6%
viability, T/C [42]: 23%
viability, T/C [25]: 23.2%
viability, T/C [26]: 31%
viability, T/C [27]: 24.3%
